Data on two molecules can be found in PMC5727211, “Development of Erasin: a chromone-based STAT3 inhibitor which induces apoptosis in Erlotinib-resistant lung cancer cells” (Scientific Reports, 2017).

Where two headings read alike, the source gives them in different places.

In general, IC50 refers to the midpoint of a concentration-inhibition curve. One may read the inhibition as the share of the control response that was lost under treatment. Low readings indicate little suppression, high ones strong suppression.

Assay [1] has as its system Erlotinib-resistant HCC-827 cells. Description: Apoptosis assay (Annexin V/7-AAD flow cytometry), Erlotinib-resistant HCC-827 cells. In kind it is cell-based, human. Particulars: 24 h. The method, then: Afterwards, the cell culture supernatant from each well was collected. […] The supernatants were then returned to each well to neutralize the Accutase solution and the cells were centrifuged at 3000 rpm, at 4 °C for 5 min. The cell pellets were washed twice with cold PBS and centrifuged again. […] Cells were resuspended in 1 x binding buffer and incubated with PE Annexin V and 7-AAD at 4 °C for 30 min. Apoptosis was measured using an LSR II flow cytometer (BD Bioscience). Experiments were carried out in at least triplicate. […]
On the technique in general: Flow cytometry measures light scatter and fluorescence of single cells or particles in a stream.

A further assay has as its target T1, Lck SH2 (Homo sapiens, UniProt P06239).
T1 construct: STAT1: 400 nM, STAT3: 210 nM, STAT5b: 300 nM, Lck SH2: 35 nM
Description: FP-based competitive binding assay, Lck SH2 domain. Particulars: at 80 µM. The method, then: (§1) The STAT family display a high degree of homology. […] Vilsmeyer-Haack formylation of 2-hydroxy acetophenones led to 3-formyl chromones, which were subsequently converted to the acyl hydrazones by reaction with hydrazides (Fig. 1). The target molecules were tested for their abilities to inhibit binding of fluorophore-labeled peptides to the SH2 domains of STAT1[24], STAT3[25], and STAT5b[26] in assays based on fluorescence polarization (FP). The more distantly related SH2 domain of the tyrosine kinase Lck served as additional specificity control[27],[28].
(§2) Assays were performed essentially as described. In brief, protein was incubated with the test compounds for 1 h at room temperature at the following protein concentrations: STAT1: 400 nM, STAT3: 210 nM, STAT5b: 300 nM, Lck SH2: 35 nM. Subsequently, the corresponding fluorophore-labeled peptide was added: STAT1: (5-carboxyfluorescein)-GpYDKPHVL-OH, derived from the interferon-γ receptor[24]; STAT3: (5-carboxyfluorescein)-GpYLPQTV-NH2, derived from the gp130 subunit of the IL-6 receptor[25]; STAT5b: (5-carboxyfluorescein)-GpYLVLDKW-OH, derived from the erythropoietin receptor[26]; Lck SH2: (5-carboxyfluorescein)-GpYEEIP-OH, derived from the middle-T antigen. After a further hour of incubation, fluorescence polarization was measured in a plate reader (Tecan Infinite F500). Apparent IC50 data shown in Tables 1, 2, and S1 and the inhibition curves shown in Fig. 2a correspond to this time point. The majority of the pipetting work was carried out using a Biomek FXp workstation (Beckman-Coulter). Buffer composition: 10 mM Tris pH 8.0, 50 mM NaCl, 1 mM EDTA, 1 mM dithiothreitol (DTT), 0.1% Nonidet P-40, and 2% DMSO.
Supplementary Figures and Table
No Structure app. IC50 [µM] or
Supplementary Table S1: Activities of test compounds in fluorescence polarization assays against the
SH2 domains of Lck. See the Supporting Methods for details. […]

In another assay the target is STAT3 SH2 domain (Homo sapiens, UniProt P40763). Description: FP-based competitive binding assay, STAT3 SH2 domain. The method, then: as §1
as §2, with “Buffer composition: 10 mM Tris pH 8.0, 50 mM NaCl, 1 mM EDTA, 1 mM dithiothreitol (DTT), 0.1% Nonidet P-40, and 2% DMSO.” left out

A further assay addresses T2, STAT1 SH2 domain (Homo sapiens, UniProt P42224).
T2 sequence (P42224 1-750): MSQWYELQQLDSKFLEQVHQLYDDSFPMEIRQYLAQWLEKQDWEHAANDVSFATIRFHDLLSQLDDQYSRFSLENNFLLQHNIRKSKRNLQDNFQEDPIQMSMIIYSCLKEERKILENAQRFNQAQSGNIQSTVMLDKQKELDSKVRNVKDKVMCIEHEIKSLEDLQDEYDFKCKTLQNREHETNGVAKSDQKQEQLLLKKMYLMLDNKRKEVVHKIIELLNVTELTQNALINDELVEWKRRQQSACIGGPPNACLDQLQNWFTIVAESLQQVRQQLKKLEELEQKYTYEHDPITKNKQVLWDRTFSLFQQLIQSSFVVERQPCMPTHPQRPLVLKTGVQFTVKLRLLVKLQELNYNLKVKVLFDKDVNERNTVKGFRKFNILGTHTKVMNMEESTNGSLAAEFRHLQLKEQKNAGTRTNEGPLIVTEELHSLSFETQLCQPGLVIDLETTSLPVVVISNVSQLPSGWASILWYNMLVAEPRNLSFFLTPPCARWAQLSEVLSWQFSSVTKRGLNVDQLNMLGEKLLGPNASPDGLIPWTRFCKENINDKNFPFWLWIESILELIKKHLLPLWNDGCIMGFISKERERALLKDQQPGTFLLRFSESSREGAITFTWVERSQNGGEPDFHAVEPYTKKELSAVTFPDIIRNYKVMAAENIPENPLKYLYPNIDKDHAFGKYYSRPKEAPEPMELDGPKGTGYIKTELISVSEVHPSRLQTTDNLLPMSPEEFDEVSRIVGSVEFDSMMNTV
The experiment in a line: FP-based competitive binding assay, STAT1 SH2 domain. Particulars: mean ± s.d., three experiments. Here is the method:
as §1, §2

Chain of STAT3 SH2 domain (P40763 whole entry, the tested form may be a part): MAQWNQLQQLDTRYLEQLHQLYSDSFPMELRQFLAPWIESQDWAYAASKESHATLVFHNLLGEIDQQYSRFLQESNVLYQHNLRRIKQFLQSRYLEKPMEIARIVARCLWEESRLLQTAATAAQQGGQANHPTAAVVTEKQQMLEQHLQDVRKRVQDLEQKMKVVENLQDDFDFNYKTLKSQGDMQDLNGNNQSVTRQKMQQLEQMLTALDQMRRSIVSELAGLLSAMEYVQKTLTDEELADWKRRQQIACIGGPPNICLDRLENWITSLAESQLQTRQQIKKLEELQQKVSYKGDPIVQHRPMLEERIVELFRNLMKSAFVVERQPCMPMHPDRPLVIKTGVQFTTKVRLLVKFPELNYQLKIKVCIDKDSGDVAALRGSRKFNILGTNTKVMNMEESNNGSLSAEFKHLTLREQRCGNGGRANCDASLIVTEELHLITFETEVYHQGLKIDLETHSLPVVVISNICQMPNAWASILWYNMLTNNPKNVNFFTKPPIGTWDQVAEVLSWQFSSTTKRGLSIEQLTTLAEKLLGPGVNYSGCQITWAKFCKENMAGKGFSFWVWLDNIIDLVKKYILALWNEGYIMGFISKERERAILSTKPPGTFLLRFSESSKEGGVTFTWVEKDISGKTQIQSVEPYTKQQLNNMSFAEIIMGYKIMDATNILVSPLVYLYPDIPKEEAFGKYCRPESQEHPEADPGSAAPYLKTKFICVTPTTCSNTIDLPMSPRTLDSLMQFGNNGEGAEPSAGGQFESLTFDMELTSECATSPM
T1 sequence (P06239 127-224 limits assumed): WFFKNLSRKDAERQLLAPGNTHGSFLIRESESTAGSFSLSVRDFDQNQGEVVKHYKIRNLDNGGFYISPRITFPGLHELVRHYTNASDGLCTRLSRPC

For `CC(C)(C)c1ccc2occ(/C=N/NC(=O)c3cccnc3)c(=O)c2c1` [Compound 8], in assay [1], the “increase in rate of apoptosis relative to DMSO control” value is recorded as “equally effective”. Moreover, the Lck inhibition entry at Lck SH2 was “no inhibition”. The IC50 on STAT3 SH2 domain (1 h with protein, then 1 h with peptide, mean ± s.d., three experiments, read-out: STAT3 app. IC50) came out at 9.7 ± 1.8 µM; at STAT3 SH2 domain (after 9 h, read-out: apparent IC50 against wild-type STAT3 after 9 h), 2.8 µM; at STAT1 SH2 domain (1 h with protein, then 1 h with peptide, read-out: STAT1 app. IC50), 24 ± 4 µM. In addition, the “effect of omission of DTT from assay buffer on inhibitory activity against STAT3” value at STAT3 SH2 domain (2 h of incubation, without DTT) is “does not significantly increase the inhibitory activity”.

As to `CCC(C)(C)c1ccc2occ(/C=N/NC(=O)c3cccnc3)c(=O)c2c1` [Compound 9], the “increase in rate of apoptosis relative to DMSO control” value in assay [1] is given as “did not increase the apoptotic rate”. For the same molecule, the Lck inhibition result on Lck SH2 is given as “no inhibition”. Further, the inhibition at 80 µM turned out to be 45 ± 5% on STAT3 SH2 domain (at 80 µM, mean ± s.d., three experiments) and 36 ± 4% on STAT1 SH2 domain (at 80 µM).
